# Data reported in patent US11879137B2, “Treatment of type 1 diabetes and autoimmune diseases or disorders” (THE CHILDREN'S MEDICAL CENTER CORPORATION, priority 2017, dated 2024).
# Read-outs that look alike come from different tables or passages of the source.
# Experiments:
# peripheral CD34+ cells = settings: after mobilization
# Protocol: Data are expressed as mean±standard error of the mean (SEM). Data are representative of at least two independent experiments. *P<0.05; **P<0.01; ***P<0.001. #P<0.05 vs. all
# The effect of overcoming PD-L1 deficiency in human HSPCs was tested by using the same agents described herein above (e.g., tested in NOD mice). […] To study the ex vivo immunoregulatory functions of pCD34+, CD34-depleted PBMCs were co-cultured with unmodulated CD34+ or pCD34+ in the presence of insulin-associated autoantigen-2 (I-A2), and the number of IFN-γ-producing cells was quantified in an ELISPOT assay. […] Finally, the effect of plerixafor-mediated mobilization, used in clinic (5, 9), was analyzed on PD-L1 expression in CD34+ cells obtained from 5 T1D patients and 8 healthy controls (Table 10).
# [1] = system: PD-L1 in MDA-MB-231 cells; assay: PD-L1 protein by western blot in transfected MDA-MB-231 cells; assay type: cell-based, human; settings: vs corresponding negative control; 48 h
# Protocol: MDA-MB-231 breast cancer cells were cultured in DMEM high glucose medium (Gibco, Thermo Fisher Scientific; Waltham, MA USA) supplemented with 10% heat-inactivated fetal calf serum (Gibco, Thermo Fisher Scientific), 100 units/ml penicillin, 100 μg/ml streptomycin, and 2 mM L-glutamine. 2×10^5 cells were seeded in each well of a 6-well plate and transfected with 10 pmol of the miRNA mimic or miRNA mimic negative control, or 100 pmol of the anti-miR or anti-miR negative control (all from Exiqon, Qiagen) using the Lipofectamine RNAiMAX transfection reagent (Invitrogen, Thermo Fisher Scientific) in a final culture medium volume of 2 ml, following manufacturer's instructions. […] Forty-eight hours after transfection, cells were collected from each well for RNA extraction, cell lysate preparation and FACS analysis. RNA was extracted using Direct-zol RNA miniprep plus (Zymo research, Irvine, CA, USA) and RNA quality was checked and then retro-transcribed using RETROscript® Kit (Fisher Scientific) following manufacturer's instructions. […]
# Protein concentration in MDA-MB-231 cell lysates was measured. […] Finally, for the quantification of western blot, images of PVDF membranes were analyzed by ImageJ software to quantify size and strength of protein bands. […]
# [2] = system: NEU1, MTOR, MYC, IGF1R, VEGFA, RB1 in MDA-MB-231 cells; assay: mRNA of validated miRNA target genes (transfection control) in MDA-MB-231 cells; assay type: cell-based, human; settings: VEGFA or RB1 as named for each agent, 48 h after transfection
# Protocol: MDA-MB-231 breast cancer cells were cultured in DMEM high glucose medium (Gibco, Thermo Fisher Scientific; Waltham, MA USA) supplemented with 10% heat-inactivated fetal calf serum (Gibco, Thermo Fisher Scientific), 100 units/ml penicillin, 100 μg/ml streptomycin, and 2 mM L-glutamine. 2×10^5 cells were seeded in each well of a 6-well plate and transfected with 10 pmol of the miRNA mimic or miRNA mimic negative control, or 100 pmol of the anti-miR or anti-miR negative control (all from Exiqon, Qiagen) using the Lipofectamine RNAiMAX transfection reagent (Invitrogen, Thermo Fisher Scientific) in a final culture medium volume of 2 ml, following manufacturer's instructions. […] Forty-eight hours after transfection, cells were collected from each well for RNA extraction, cell lysate preparation and FACS analysis. RNA was extracted using Direct-zol RNA miniprep plus (Zymo research, Irvine, CA, USA) and RNA quality was checked and then retro-transcribed using RETROscript® Kit (Fisher Scientific) following manufacturer's instructions. Cell lysates were obtained in RIPA buffer (50 mmol/1 Tris-HCl, pH 8.0, 1% Triton-x, 0.5% sodium deoxycholate, 0.1% SDS, 150 mmol/1 sodium chloride) with protease inhibitor cocktail (Roche).
# qRT-PCR for PD-L1 analysis was performed on retro-transcribed cDNA using SYBR® Green dye (Life Technologies, Thermo Fisher Scientific). Amplification was performed on a QuantStudio S6 Real Time PCR system (Thermo Fisher Scientific). To confirm a successful transfection, the mRNA level of genes known to be controlled by the targeted miRNAs were evaluated by SYBR® Green dye (Life Technologies, Thermo Fisher Scientific) according to the manufacturer's instructions. Normalized expression values were determined using the ΔΔCt method in treated as compared to negative treated samples, using GAPDH mRNA as endogenous reference. The miRNA-targeted genes tested, along with forward and reverse primer sequences used for their amplification, are listed in Table 13.
# To determine if targeting the miRNA network decreases PD-L1 expression in human cancer setting, PD-L1-expressing MDA-MB-231 human breast cancer cells were transfected with a set of miRNA mimics or anti-miRs to either increase or decrease the function of a set of miRNAs not previously known to affect PD-L1 (miR-125b, miR-99a, miR-744, mir-599, miR-511, miR-206, miR-26b). The effect of treatment with miRNA mimics and anti-miRs on the percentage of PD-L1-expressing cells, as well as on PD-L1 mRNA and protein levels, was investigated. miRNA mimic/anti-miR treated-cells were compared to corresponding mimic/anti-miR negative control-treated cells by flow cytometric analysis, Real Time PCR and western blot to assess percentage of PD-L1-expressing cells, PD-L1 mRNA, and PD-L1 protein levels, respectively. A successful miRNA mimic/anti-miR transfection was confirmed by the detection of changed mRNA levels of the validated miRNA targets NEU1 (for miR-125b mimic), MTOR (for miR-99a mimic), MYC (for miR-744 mimic and miR-599 anti-miR), IGF1R (for miR-511 mimic), VEGFA (for miR-206 anti-miR) and RB1 (for miR-26b anti-miR) in treated cells (FIG. 22A). […] Lysates of miR-511 mimic and miR-206 anti-miR treated cells were not available for western blot analysis.
Compound,percentage of CD34+PD-L1+ cells (peripheral CD34+ cells; T1D patients),percentage and absolute number of CD34+ cells (peripheral CD34+ cells; 5 T1D patients and 8 healthy controls),percentage of CD34+PD-L1+ cells (peripheral CD34+ cells; healthy controls),PD-L1 protein levels [1],mRNA levels of the validated miRNA target [2]
c1cc(CN2CCCNCCNCCCNCC2)ccc1CN1CCCNCCNCCCNCC1 [plerixafor],remained stable,significantly increased,decreased,–,–
"miR-599 anti-miR: Anti-miR, GUUUGAUAAACUGACACAAC, SEQ ID NO: 6 (listed as RNA, chemistry not given here)",–,–,–,increase,changed
